# Data taken from publication PMC2229473 (The Journal of General Physiology, 1999).
# Columns and labels:
# KcsA K^+ channel [1] = target: T1, KcsA K^+ channel (Streptomyces lividans, UniProt P0A334); assay: single-channel recording in planar lipid bilayer, block of open-channel current; assay type: biochemical
# T1 sequence (P0A334 1-160): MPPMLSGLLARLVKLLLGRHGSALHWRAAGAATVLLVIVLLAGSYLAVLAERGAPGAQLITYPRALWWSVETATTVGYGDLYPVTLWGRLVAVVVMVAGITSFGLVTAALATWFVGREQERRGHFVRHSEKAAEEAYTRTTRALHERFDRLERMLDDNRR
# KcsA K^+ channel [2] = target: T2, KcsA K^+ channel (Streptomyces lividans, UniProt P0A334, Y82C); assay: as above; assay type: biochemical
# T2 sequence (P0A334 1-160 Y82C): T1 sequence (P0A334 1-160)
smiles,measurement,setting,value
"CC[N+](CC)(CC)CC [TEA, tetraethylammonium]",Ki,KcsA K^+ channel [1],3.2 mM
same,Ki,KcsA K^+ channel [2],23 mM
